Common to all, as to assay: Gene panel canonical junction qPCR assay, decrease in CJ mRNA, Table 3
Holding throughout (format): cell-based
What all share (conditions): decrease in canonical junction (CJ) mRNA, gene panel qPCR, Table 3
A general note: Real-time PCR tracks product formation cycle by cycle.

One test concerns HTT mRNA. The method in brief: (§1)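 A673 cells were plated, left to adhere for 24 h, then dosed; K562 cells were plated in 96- or 384-well format and dosed directly. Both were incubated 24 h at 37 °C with an 11-point 3-fold series (top 10 uM final). Canonical junction mRNA was then read by cDNA synthesis and qPCR.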
The next test deals with MYB mRNA. The method in brief:
as §1

Another test has as its system SMN2 mRNA. The method in brief:
as §1

Counter-ions that a name gives are not always drawn.

`Cc1cn2cc(NC(=O)c3ccc(N4CCC(NC5CC5)CC4)n4cc(C)nc34)cc(F)c2n1` [Compound 210, 5-(4-(cyclopropylamino)piperidin-1-yl)-N-(8-fluoro-2-methylimidazo[1,2-a]pyridin-6-yl)-2-methylimidazo[1,2-a]-pyridine-8-carboxamide]: the IC50 (as a rule, the midpoint of a concentration-inhibition curve) with HTT mRNA was 100 to 1000 nM; with MYB mRNA, below 100 nM; with SMN2 mRNA, below 100 nM.
As for `Cc1cn2cc(NC(=O)c3ccc(N4C[C@@H](C)N[C@@H](C)C4)c4[nH]cnc34)cc(F)c2n1` [Compound 220, 7-[(3R,5S)-3,5-dimethylpiperazin-1-yl]-N-(8-fluoro-2-methyl-imidazo[1,2-a]pyridin-6-yl)-1H-1,3-benzodiazole-4-carboxamide], the IC50 with HTT mRNA was in the range of 1000 to 10000 nM; with MYB mRNA, 100 to 1000 nM; in the test on SMN2 mRNA, 100 to 1000 nM.
For `Cc1cn2cc(NC(=O)c3ccc(N4C[C@H](C)N[C@@H](C)C4)c4[nH]cnc34)cc(F)c2n1` [Compound 221, 7-[(3S,5S)-3,5-dimethylpiperazin-1-yl]-N-(8-fluoro-2-methylimidazo[1,2-a]pyridin-6-yl)-1H-1,3-benzodiazole-4-carboxamide], the concentration for half-maximal inhibition (IC50) with HTT mRNA is above 10000 nM; in the test on MYB mRNA, 100 to 1000 nM; in the test with SMN2 mRNA, below 100 nM.
On the same counts, the results for `Cc1cn2cc(NC(=O)c3ccc(N4C[C@@H](C)N[C@@H](C)C4)c4[nH]c(C)nc34)cc(F)c2n1` [Compound 225, 7-[(3R,5S)-3,5-dimethylpiperazin-1-yl]-N-(8-fluoro-2-methylimidazo[1,2-a]pyridin-6-yl)-2-methyl-1H-1,3-benzodiazole-4-carboxamide] are 1000 to 10000 nM, 1000 to 10000 nM and 100 to 1000 nM.
Turning to `Cc1cn2nc(C(=O)Nc3ccc(N4C[C@@H](C)N[C@@H](C)C4)c4cc[nH]c34)cc(C)c2n1` [Compound 237, N-(4-[(3R,5S)-3,5-dimethylpiperazin-1-yl]-1H-indol-7-yl)-2,8-dimethylimidazo[1,2-b]pyridazine-6-carboxamide], the concentration for half-maximal inhibition (IC50) in the test on HTT mRNA, in the test on MYB mRNA and in the test with SMN2 mRNA was 1000 to 10000 nM throughout.
Take `Cc1cn2cc(NC(=O)c3ccc(N4C[C@H](C)N[C@@H](C)C4)c4[nH]nnc34)cc(F)c2n1` [Compound 242, 7-[(3S,5S)-3,5-dimethylpiperazin-1-yl]-N-(8-fluoro-2-methyl-imidazo[1,2-a]pyridin-6-yl)-1H-benzotriazole-4-carboxamide]: the figures for the IC50 with HTT mRNA, in the test on MYB mRNA and with SMN2 mRNA were above 10000 nM, above 10000 nM and 1000 to 10000 nM, respectively.
Regarding `Cc1cn2cc(NC(=O)c3ccc(N4C[C@@H](C)N[C@@H](C)C4)c4[nH]nnc34)cc(F)c2n1` [Compound 243, 7-((3S,5R)-3,5-dimethylpiperazin-1-yl)-N-(8-fluoro-2-methylimidazo[1,2-a]pyridin-6-yl)-1H-benzo[d][1,2,3]-triazole-4-carboxamide hydrochloride], the IC50 was above 10000 nM in the test with HTT mRNA, above 10000 nM with MYB mRNA and 1000 to 10000 nM in the test with SMN2 mRNA.
In the case of `Cc1cn2cc(NC(=O)c3c(F)cc(N4CCNCC4)c4occc34)cc(F)c2n1` [Compound 247, 5-fluoro-N-(8-fluoro-2-methylimidazo-[1,2-a]pyridin-6-yl)-7-piperazin-1-yl-benzofuran-4-carboxamide], the concentration for half-maximal inhibition (IC50) is above 10000 nM in the test with HTT mRNA, above 10000 nM with MYB mRNA and 1000 to 10000 nM in the test with SMN2 mRNA.
For `Cc1cn2cc(NC(=O)c3ccc(N4CCNC(C(F)(F)F)C4)c4cn(C)nc34)cc(F)c2n1` (stereo not drawn) [Compound 248, N-(8-fluoro-2-methyl-imidazo[1,2-a]-pyridin-6-yl)-2-methyl-4-[3-(trifluoro-methyl)piperazin-1-yl]indazole-7-carboxamide], the values for the IC50 in the test with HTT mRNA, with MYB mRNA and in the test with SMN2 mRNA were above 10000 nM, 1000 to 10000 nM and 100 to 1000 nM, respectively.
For `Cc1cn2cc(NC(=O)c3ccc(N4CCNC(C(F)F)C4)c4cn(C)nc34)cc(F)c2n1` (stereo not drawn) [Compound 249, 4-[3-(difluoromethyl)piperazin-1-yl]-N-(8-fluoro-2-methylimidazo[1,2-a]pyridin-6-yl)-2-methyl-indazole-7-carboxamide], the IC50 was 1000 to 10000 nM in the test on HTT mRNA, 100 to 1000 nM with MYB mRNA and below 100 nM in the test on SMN2 mRNA.
On the same counts, the results for `COc1cc(N2CCNCC2)c2cn(C)nc2c1C(=O)Nc1cc(F)c2nc(C)cn2c1` [Compound 250, N-(8-fluoro-2-methyl-imidazo[1,2-a]pyridin-6-yl)-6-methoxy-2-methyl-4-piperazin-1-yl-indazole-7-carboxamide] are above 10000 nM, above 10000 nM and 1000 to 10000 nM.
Regarding `Cc1cn2cc(NC(=O)c3ccc(N4CCNCC4=O)c4cn(C)nc34)cc(F)c2n1` [Compound 251, N-(8-fluoro-2-methylimidazo[1,2-a]-pyridin-6-yl)-2-methyl-4-(2-oxopiperazin-1-yl)-2H-indazole-7-carboxamide 2,2,2-trifluoroacetate], the concentration for half-maximal inhibition (IC50) in the test on HTT mRNA was above 10000 nM; in the test with MYB mRNA, above 10000 nM; with SMN2 mRNA it was 1000 to 10000 nM.
On to `Cc1cn2cc(NC(=O)c3ccc(N4C[C@@H](C)N[C@@H](C)C4)c4nn(C)nc34)cc(F)c2n1` [Compound 252, 7-((3S,5R)-3,5-dimethyl-piperazin-1-yl)-N-(8-fluoro-2-methyl-imidazo[1,2-a]pyridin-6-yl)-2-methyl-2H-benzo[d][1,2,3]triazole-4-carboxamide 2,2,2-trifluoroacetate], for which the IC50 with HTT mRNA is 100 to 1000 nM; with MYB mRNA, 100 to 1000 nM; in the test on SMN2 mRNA, below 100 nM.
In the case of `Cc1cn2cc(NC(=O)c3ccc(N4CCNCC4=O)c4[nH]cnc34)cc(F)c2n1` [Compound 257, N-(8-fluoro-2-methyl-imidazo[1,2-a]-pyridin-6-yl)-7-(2-oxopiperazin-1-yl)-1H-benzimidazole-4-carboxamide], the half-maximal inhibitory concentration (IC50) with HTT mRNA is above 10000 nM; with MYB mRNA, above 10000 nM; in the test on SMN2 mRNA it was 1000 to 10000 nM.
On to `Cc1cn2cc(NC(=O)c3ccc(N4C[C@@H](C)N[C@@H](C)C4)c4nnn(C)c34)cc(F)c2n1` [Compound 261, 7-[(3R,5S)-3,5-dimethylpiperazin-1-yl]-N-(8-fluoro-2-methyl-imidazo[1,2-a]pyridin-6-yl)-3-methyl-benzotriazole-4-carboxamide], for which the IC50 in the test on HTT mRNA, in the test on MYB mRNA and in the test with SMN2 mRNA was above 10000 nM each time.
Regarding `CO[C@H]1C[C@H](N[C@H]2CCN(c3ccc(C(=O)Nc4cc(F)c5nc(C)cn5c4)c4nn(C)cc34)C2)C1` [Compound 275, N-(8-fluoro-2-methylimidazo[1,2-a]pyridin-6-yl)-4-((S)-3-(((1r,3S)-3-methoxycyclobutyl)amino)pyrrolidin-1-yl)-2-methyl-2H-indazole-7-carboxamide], the results for the IC50 with HTT mRNA, in the test with MYB mRNA and with SMN2 mRNA were 1000 to 10000 nM, 100 to 1000 nM and below 100 nM, respectively.
Taken in the same sequence, the figures for `CO[C@H]1C[C@@H](N[C@H]2CCN(c3ccc(C(=O)Nc4cc(F)c5nc(C)cn5c4)c4nn(C)cc34)C2)C1` [Compound 277, N-(8-fluoro-2-methylimidazo[1,2-a]pyridin-6-yl)-4-((S)-3-(((1s,3R)-3-methoxy-cyclobutyl)amino)pyrrolidin-1-yl)-2-methyl-2H-indazole-7-carboxamide] were 1000 to 10000 nM, 100 to 1000 nM and below 100 nM.
Taken in the same sequence, the figures for `Cc1cn2cc(NS(=O)(=O)c3ccc(N4C[C@@H](C)N[C@@H](C)C4)c4cn(C)nc34)cc(F)c2n1` [Compound 279] were above 10000 nM, above 10000 nM and above 10000 nM.

(Values after patent US20260285853A1, “COMPOUNDS AND METHODS FOR MODULATING SPLICING” (REMIX THERAPEUTICS INC., priority 2023, published 2026).)
